The supplement of paper PMC10307832

Legend:
Assay in all cases: relative viability (nuclei count vs DMSO), 5 days (fraction); higher = more cells survive
[1] = compound: CS(=O)(=O)CCNCc1ccc(-c2ccc3ncnc(Nc4ccc(OCc5cccc(F)c5)c(Cl)c4)c3c2)o1 [Lapatinib] + COc1cc2c(Oc3ccc(NC(=O)C4(C(=O)Nc5ccc(F)cc5)CC4)cc3F)ccnc2cc1OCCCN1CCOCC1 [Foretinib] (partner 0.25 µM)
Summary of the method: (§1)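 Lung cancer cell lines in 1536-well plates were dosed by pin tool the day after seeding, either with one drug alone or with a fixed anchor-drug dose plus five library-drug doses (not always all listed) in √10 steps. After 5 days, cells were fixed and their nuclei stained in one step (final 0.05% Triton X-100, 1% formaldehyde, 1 ug/ml Hoechst), then counted on 4× images. Relative viability is the nuclei count in treated wells divided by that in vehicle wells. Values are medians of duplicate plates.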

[2] = compound: CS(=O)(=O)CCNCc1ccc(-c2ccc3ncnc(Nc4ccc(OCc5cccc(F)c5)c(Cl)c4)c3c2)o1 [Lapatinib] + Nc1nc2[nH]cc(CCc3ccc(C(=O)N[C@@H](CCC(=O)O)C(=O)O)cc3)c2c(=O)[nH]1 [Pemetrexed] (partner 0.2 µM)
Summary of the method: as §1

[3] = compound: CC1=NC=CC(=C1)C2=CC=C(C=C2)CC(=O)NC3=CC=C(C=C3)C4=CN=CC=C4 [Wnt-C59] + CC(=O)Nc1cccc(-n2c(=O)n(C3CC3)c(=O)c3c(Nc4ccc(I)cc4F)n(C)c(=O)c(C)c32)c1 [Trametinib] (partner 0.02 µM)
Summary of the method: as §1

[4] = compound: CC1=NC=CC(=C1)C2=CC=C(C=C2)CC(=O)NC3=CC=C(C=C3)C4=CN=CC=C4 [Wnt-C59] + Cc1nc(NC(=O)N2CCC[C@H]2C(N)=O)sc1-c1ccnc(C(C)(C)C(F)(F)F)c1 [Alpelisib] (partner 2 µM)
Summary of the method: as §1

## UMC-11
[1]; first compound 0.02 µM
  relative viability: 0.951
[1]; first compound 0.06325 µM
  relative viability: 1.01
[1]; first compound 0.2 µM
  relative viability: 0.961
[1]; first compound 0.6325 µM
  relative viability: 0.978
[1]; first compound 2 µM
  relative viability: 0.933
[2]; first compound 0.02 µM
  relative viability: 0.803
[2]; first compound 0.06325 µM
  relative viability: 0.7
[2]; first compound 0.2 µM
  relative viability: 0.781
[2]; first compound 0.6325 µM
  relative viability: 0.795
[2]; first compound 2 µM
  relative viability: 0.753
[3]; first compound 0.001 µM
  relative viability: 0.654
[3]; first compound 0.01 µM
  relative viability: 0.812
[3]; first compound 0.03162 µM
  relative viability: 0.698
[3]; first compound 0.1 µM
  relative viability: 0.758
[4]; first compound 0.001 µM
  relative viability: 1.08
[4]; first compound 0.01 µM
  relative viability: 0.978
[4]; first compound 0.03162 µM
  relative viability: 1.07
[4]; first compound 0.1 µM
  relative viability: 1.01
